Patent US5686452A, “Indane derivative and processes for preparing the same” (Tanabe Seiyaku Co., Ltd., priority 1994, dated 1997)

Tested on: rat glomerular nephritis
Experiment: Action on rat glomerular nephritis (nephrotoxic serum-induced nephritis; urinary protein excretion)
Format: in vivo
Conditions: male WKY rats, NTS-induced nephritis; 30 mg/kg/10 ml orally twice a day for 8 days; 24 h urine collected after 7 days
Procedure: (Action on rat glomerular nephritis)
Rabbits were immunized several times with a renal glomerular basement membrane fraction obtained from WKY strain rats and an adjuvant. Thereafter, blood was collected to obtain a nephrotoxic serum (NTS). This NTS was diluted by 50 times with physiological saline, and the diluted NTS was once administered intravenously to male WKY rats of 8 weeks old in a dose of 2.5 ml per 1 kg of body weight to induce nephritis. In normal group of rats, the same volume of physiological saline was intravenously administered.
In the experiment, one group consisted of 6 rats, and each compound to be tested was suspended in water with small amount of Tween 80 (trade name, produced by Nacalai Tesque Co.), and was orally administered to the test group of rats at a dose of 30 mg/kg/10 ml twice a day for 8 days. In normal group and control group of rats, the same volume of water was orally administered instead of the test compound. After 7 days, the rats were placed in metabolic cages and urine was collected for 24 hours. Concentrations of protein in urine were measured by the sulfosalicylic acid method to determine amounts of protein excreted in the urine (mg/day). The inhibition rate of excretion of protein were calculated by the following equation. [formula]

SMILES | Inhibition rate (of excretion of protein in urine)
C=CS(=O)(=O)NCCC1Cc2ccc(-c3ccc(=O)[nH]n3)cc2C1 (stereo not drawn) [Example 8] | 71.6%
C=CS(=O)(=O)NCCCCC1Cc2ccc(-c3ccc(=O)[nH]n3)cc2C1 (stereo not drawn) [Example 12] | 67.5%
CCCS(=O)(=O)NCCC1Cc2ccc(-c3ccc(=O)[nH]n3)cc2C1 (stereo not drawn) [Example 7] | 77.2%
CCS(=O)(=O)NCCC1Cc2ccc(-c3ccc(=O)[nH]n3)cc2C1 (stereo not drawn) [Example 6] | 65.1%
C=CS(=O)(=O)NCC1Cc2ccc(-c3ccc(=O)[nH]n3)cc2C1 (stereo not drawn) [Example 4] | 61.5%
C=CS(=O)(=O)NCCCC1Cc2ccc(-c3ccc(=O)[nH]n3)cc2C1 (stereo not drawn) [Example 19] | 91.8%
